These results are taken from BindingDB's records for patent WO2022070068 (JANSSEN BIOTECH, INC., 2022).

Usually IC50 stands for the concentration that inhibits the measured activity by half.

Values joined by “and” are separate entries in the source; they are usually repeats but may differ in a detail not shown here. Equal entries are not always repeated.

The target of the assay is Dihydroorotate dehydrogenase (quinone), mitochondrial (Homo sapiens, UniProt Q02127). Kind of assay: DHODH enzymatic assay. As for the experimental part:
To detect DHODH enzyme activities, dichloroindophenol (DCIP) is added as the final electron acceptor in the assay. DCIP can accept electrons from the reduced coenzyme Q generated in the assay, or from dihydroorotate (DHO) via FMN by binding presumably to the ubiquinone pocket. DCIP solutions are blue, with an intense absorbance around 600 nm, but becomes colorless upon reduction (J. Biol. Chem. (1986) 261, 11386). The assay buffer contained […], pH 7.5, 150 mM NaCl, 0.5 mM EDTA, and 0.1% Triton X-100 in MilliQ water. Substrate consisting of 20 mM DHO, 5mM CoQ6, and 1mM DCIP in assay buffer, initiates the reaction. The assay is run in end-point mode by quenching the reaction with the potent DHODH inhibitor brequinar. Absorbance measurements were obtained using the BMG Phera Star plate-reading spectrophotomer. Purified human DHODH was purchased from Proteros (cat. No. PR-0044). Chemicals were purchased from Sigma-Aldrich, Teknova, and Avanti Polar Lipids. Liquid handling was performed using Labcyte Echo and Formulatrix Tempest.

Dihydroorotate dehydrogenase (quinone), mitochondrial, sequence (Q02127 whole entry): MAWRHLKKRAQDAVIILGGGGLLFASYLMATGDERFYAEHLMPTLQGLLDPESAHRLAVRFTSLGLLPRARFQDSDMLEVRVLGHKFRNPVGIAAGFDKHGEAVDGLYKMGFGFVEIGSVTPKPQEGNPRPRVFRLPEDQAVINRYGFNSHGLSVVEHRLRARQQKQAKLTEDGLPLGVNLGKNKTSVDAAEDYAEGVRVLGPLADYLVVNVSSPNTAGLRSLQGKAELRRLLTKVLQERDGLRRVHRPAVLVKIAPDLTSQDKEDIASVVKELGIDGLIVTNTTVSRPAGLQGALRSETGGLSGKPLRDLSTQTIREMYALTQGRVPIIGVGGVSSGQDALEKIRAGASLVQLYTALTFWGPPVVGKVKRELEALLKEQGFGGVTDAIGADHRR

On to `CCn1nc(-c2cc3c(C(C)C)cn(-c4ccccc4C)c(=O)c3cc2F)nc1C(C)(C)O` [WO2022070068, Example 20], for which the IC50 was 27 nM.
For the compound `Cc1ccccc1-n1cc(C(C)C)c2cc(-c3nc(C(C)(C)O)n(C)n3)c(F)cc2c1=O` [WO2022070068, Example 29], the IC50 is 0.57 nM and 0.64 nM.
The figure for `COc1cc(-n2cc(C(C)C)c3cc(-c4cn(C)c(C(C)(C)O)n4)c(F)cc3c2=O)c(C)cn1` [WO2022070068, Example 25] is 1.2 nM; for `Cc1ccccc1-n1cc(C(C)C)c2cc(-c3ccc(C)c(N)n3)c(F)cc2c1=O` [WO2022070068, Example 2] it is 0.18 nM.
The figure for `Cc1ccccc1-n1nc(C(C)C)c2cc(-c3cn(C)c([C@@H](C)O)n3)c(F)cc2c1=O` [WO2022070068, Example 15] is 2.6 nM; for `Cc1cnc(-c2cc3c(C(C)C)cn(-c4ccccc4C)c(=O)c3cc2F)cc1N` [WO2022070068, Example 3] it is 3.6 nM.
`Cc1ccccc1-n1cc(C(C)C)c2cc(-c3cn(C)c([C@@H](C)O)n3)c(F)cc2c1=O` [WO2022070068, Example 11] gave an IC50 of 0.51 nM.
To `CCn1nc(-c2cc3c(C(C)C)cn(-c4ccccc4C)c(=O)c3cc2F)nc1C(C)O` (stereo not given) [WO2022070068, Example 28] belongs 19 nM; to `CC(=O)c1nc(-c2cc3c(C(C)C)cn(-c4ccccc4C)c(=O)c3cc2F)nn1C` [WO2022070068, Example 6], 1.7 nM; to `Cc1ccc(Cl)c(-n2cc(C(C)C)c3cc(-c4cn(C)c(C(C)(C)O)n4)c(F)cc3c2=O)n1` [WO2022070068, Example 27], 1.4 nM.
The figure for `Cc1ccccc1-n1cc(C(C)C)c2cc(-c3nc([C@H](C)O)n(C)n3)c(F)cc2c1=O` [WO2022070068, Example 13] is 0.48 nM and 1.1 nM; for `Cc1ccnc(Cl)c1-n1cc(C(C)C)c2cc(-c3cn(C)c(C(C)(C)O)n3)c(F)cc2c1=O` [WO2022070068, Example 18] it is 2 nM.
As for `Cc1ccnc(Cl)c1-n1cc(C(C)C)c2cc(-c3nc(C(C)(C)O)n(C)n3)c(F)cc2c1=O` [WO2022070068, Example 19], the IC50 worked out at 2.5 nM.
`COc1cc(-n2cc(C(C)C)c3cc(-c4nc(C(C)(C)O)n(C)n4)c(F)cc3c2=O)c(C)cn1` [WO2022070068, Example 26]: inhibition was half-maximal at 1.2 nM (IC50).
The figure for `Cc1ccccc1-n1cc(C(C)C)c2cc(-c3nc(CO)n(C)n3)c(F)cc2c1=O` [WO2022070068, Example 9] is 2.6 nM; for `Cc1ccccc1-n1cc(C(C)C)c2cc(-c3cnc(C4CC4)cn3)c(F)cc2c1=O` [WO2022070068, Example 1] it is 2.6 nM; for `Cc1n[nH]c(Cl)c1-n1cc(C(C)C)c2cc(-c3nc(C(C)(C)O)n(C)n3)c(F)cc2c1=O` [WO2022070068, Example 17] it is 0.71 nM.
To `CCn1nc(-c2cc3c(C(C)C)cn(-c4ccccc4C)c(=O)c3cc2F)nc1C(C)=O` [WO2022070068, Example 24] belongs 6.2 nM; to `Cc1ccccc1-n1cc(C(C)C)c2cc(-c3cn(C)c(CO)n3)c(F)cc2c1=O` [WO2022070068, Example 8], 1.2 nM; to `Cc1ccccc1-n1cc(C(C)C)c2cc(-c3nc([C@@H](C)O)n(C)n3)c(F)cc2c1=O` [WO2022070068, Example 12], 1.6 nM and 2 nM.
The figure for `Cc1ccccc1-n1cc(C(C)C)c2cc(-c3nc(C(C)O)n(C)n3)c(F)cc2c1=O` (racemic) [WO2022070068, Example 5] is 1.1 nM.
`Cc1ccccc1-n1nc(C(C)C)c2cc(-c3cn(C)c(C(C)(C)O)n3)c(F)cc2c1=O` [WO2022070068, Example 14]: the IC50 is 0.45 nM.
To `Cc1ccccc1-n1cc(C(C)C)c2cc(-c3cn(C)c([C@H](C)O)n3)c(F)cc2c1=O` [WO2022070068, Example 10] belongs 0.73 nM.
On to `Cc1ccccc1-n1cc(C(C)C)c2cc(-c3cn(C)c(C(C)(C)O)n3)c(F)cc2c1=O` [WO2022070068, Example 23], for which the IC50 was 0.38 nM and 0.54 nM.
Regarding `Cc1n[nH]c(Cl)c1-n1cc(C(C)C)c2cc(-c3cn(C)c(C(C)(C)O)n3)c(F)cc2c1=O` [WO2022070068, Example 16], half-maximal inhibition (IC50) required 0.51 nM. This counts as sub-nanomolar.
